Experimental data: US20240076284A1, “NEW COMPOUNDS AND METHODS” (BENEVOLENTAI BIO LIMITED, priority 2020, published 2024)

How the values were obtained:
[1] = target: T1, Ba/F3 cells expressing BCR-ABL (Homo sapiens, UniProt P00519); experiment: Ba/F3 CellTiter-Glo Assay; assay type: cell-based; settings: 48 h incubation, CellTiter-Glo luminescence
T1 construct: BCR (fusion partner, N-terminal portion of BCR); host or cells: Ba/F3 (murine pro-B cells); the other entry of the earlier key: BCR (P11274, Breakpoint cluster region protein)
T1 sequence (P00519 229-512 limits assumed): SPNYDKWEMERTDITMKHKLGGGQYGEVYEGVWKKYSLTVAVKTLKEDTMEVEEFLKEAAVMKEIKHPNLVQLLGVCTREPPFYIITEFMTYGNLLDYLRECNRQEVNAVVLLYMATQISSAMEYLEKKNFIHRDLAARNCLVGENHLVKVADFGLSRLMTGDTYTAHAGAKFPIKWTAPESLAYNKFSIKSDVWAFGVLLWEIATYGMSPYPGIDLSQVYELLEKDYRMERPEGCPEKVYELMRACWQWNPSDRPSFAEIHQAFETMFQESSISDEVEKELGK
Experimental: The CellTiter-Glo luminescent cell viability assay is a homogeneous method of determining the number of viable cells in culture based on quantification of the ATP present. Briefly, IL-3 dependent Ba/F3 cells are modified to express BCR-ABL. Activity of the transformed kinase overrides IL-3 dependency for cellular proliferation and survival. […] In this assay Ba/F3 cells expressing BCR-ABL (Advanced Cellular Dynamics) or parental Ba/F3 (control) cells were prepared at 5×10^4/mL in RPMI 1640 containing 10% FBS, 1×Glutamax and 750 ng/mL puromycin. Test compounds were dispensed into 384 well plates using the Tecan D300e at a top final assay concentration of 10 μM with dosing normalised to 0.1% DMSO in […]. 50 μL cells were added to each well of the prepared 384 well plates and the plates spun at 1000 rpm for 1 min prior to incubation at 37° C., 5% CO2 for 48 h. After 48 h 15 μL CellTiter-Glo reagent was added to each well in the plate. Following a 60 min incubation at rt luminescence was read on the Pherastar FS reader.

MDR1 = target: T2, MDR1 (Homo sapiens, UniProt P08183); experiment: MDR1-MDCK effective efflux ratio; assay type: in vitro ADME; settings: MDR1-MDCK relative to wild-type MDCK, 1 μM, 60 minutes, pH 7.4
T2 construct: expressed in transfected cells; host or cells: MDCK (canine kidney) cells
Experimental: (§1) Wild-type MDCK, MDR1-MDCK and BCRP-MDCK cells were seeded into 24 well Transwell plates and cultured for 3 days to form monolayers. Test compound were prepared at 1 μM in Hanks' Balanced Salt Solution containing 25 mM HEPES and loaded into the donor compartments of Transwell plates bearing the cell monolayers (pH 7.4 for both donor and receiver compartments). Lucifer Yellow was added to the apical buffer in all wells to assess integrity of the cell monolayer. Duplicate wells were prepared and incubated at 37° C. in a CO2 incubator. Samples were removed at time zero and 60 minutes and test compound analysed by LC-MS/MS. Concentrations of Lucifer Yellow in the samples was measured using a fluorescence plate reader. The apparent permeability (Papp) values of test compound was determined for both the apical to basal (A>B) and basal to apical (B>A) permeation and the efflux ratio (B>A: A>B) determined in each cell line. The effective efflux ratio was determined from the ratio of either MDR1-MDCK cells or BCRP-MDCK cells relative to the ratio observed in wild-type cells. A higher value represent a better substrate for the efflux mechanism, which is less preferable.

BCRP = target: T3, BCRP (Homo sapiens, UniProt Q9UNQ0); experiment: BCRP-MDCK effective efflux ratio; assay type: in vitro ADME; settings: BCRP-MDCK relative to wild-type MDCK, 1 μM, 60 minutes, pH 7.4
T3 construct: expressed in transfected cells; host or cells: MDCK (canine kidney) cells
T3 sequence (Q9UNQ0 1-655): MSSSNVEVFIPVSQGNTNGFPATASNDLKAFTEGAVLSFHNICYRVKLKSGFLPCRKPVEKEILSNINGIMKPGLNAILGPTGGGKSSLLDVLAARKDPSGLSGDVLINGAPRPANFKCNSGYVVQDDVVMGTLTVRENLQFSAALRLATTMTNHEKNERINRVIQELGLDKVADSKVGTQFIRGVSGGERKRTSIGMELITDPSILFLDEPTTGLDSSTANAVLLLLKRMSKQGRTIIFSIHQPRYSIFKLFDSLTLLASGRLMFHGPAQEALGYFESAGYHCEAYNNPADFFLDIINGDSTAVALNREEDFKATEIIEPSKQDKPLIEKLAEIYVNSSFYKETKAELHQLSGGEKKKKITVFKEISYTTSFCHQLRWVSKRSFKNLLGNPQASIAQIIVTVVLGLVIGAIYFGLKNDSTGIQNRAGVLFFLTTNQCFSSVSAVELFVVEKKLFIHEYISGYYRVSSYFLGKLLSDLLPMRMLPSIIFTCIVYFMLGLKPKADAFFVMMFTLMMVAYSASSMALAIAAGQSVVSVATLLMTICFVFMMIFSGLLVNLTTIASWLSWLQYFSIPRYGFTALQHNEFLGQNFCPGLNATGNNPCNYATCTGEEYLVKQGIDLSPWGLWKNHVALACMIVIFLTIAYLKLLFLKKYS
Experimental: as §1

[2] = Human microsomal stability; assay type: in vitro ADME; settings: human microsomes, first value of cell; NADPH, 37° C., up to 40 min
Experimental: (§2) This assay measures the metabolic stability of a given compound and predicts intrinsic liver clearance for various species. A quench plate is initially prepared which contains 400 μL MeCN and 25 ng/mL of internal standard. An aliquot of microsomes is defrosted and subsequently diluted with buffer. A solution of NADPH is made up fresh just before initialising the assay. 445 μL of microsome solution is added to the desired compound (5 μL in 10 μM DMSO) and the resulting solution mixed. The reaction is initiated by the addition of 50 μL of NADPH, a T0 sample is removed before the addition and quenched. The sample plate is kept at a constant 37° C. during the incubation. At pre-determined timepoints (2.5, 5, 10, 20 and 40 min) the incubation is mixed and 22.5 μL samples are transferred to quench plates. After completion of the time course, the quench plates are sealed and shaken for a minimum of 5 min, before centrifugation at 4000 rpm for 5 min. The supernatant is then subsequently transferred to a fresh plate and diluted 1:3 with MeOH/H2O. The plates are then heat sealed and analysed by a Water Acquity UPLC and a Waters TQ-S mass spectrometer. Waters MassLynx software is used for analysis using an MRM transition that has been previously generated from prior optimisation. After acquiring the data on the system the chromatograms are processed and checked using TargetLynx XS software and the raw data output is copied into a microsomal stability workbook. The workbook automatically populates and derives the CLint, t1/2 and scales the CLint values to generate Eh and predicted CL values. The analyst has the final workbook quality checked before the experiment is signed off.

Rat microsomal stability = assay type: in vitro ADME; settings: rat microsomes, second value of cell; NADPH, 37° C., up to 40 min
Experimental: as §2

T2 sequence (P08183 whole entry, species assumed): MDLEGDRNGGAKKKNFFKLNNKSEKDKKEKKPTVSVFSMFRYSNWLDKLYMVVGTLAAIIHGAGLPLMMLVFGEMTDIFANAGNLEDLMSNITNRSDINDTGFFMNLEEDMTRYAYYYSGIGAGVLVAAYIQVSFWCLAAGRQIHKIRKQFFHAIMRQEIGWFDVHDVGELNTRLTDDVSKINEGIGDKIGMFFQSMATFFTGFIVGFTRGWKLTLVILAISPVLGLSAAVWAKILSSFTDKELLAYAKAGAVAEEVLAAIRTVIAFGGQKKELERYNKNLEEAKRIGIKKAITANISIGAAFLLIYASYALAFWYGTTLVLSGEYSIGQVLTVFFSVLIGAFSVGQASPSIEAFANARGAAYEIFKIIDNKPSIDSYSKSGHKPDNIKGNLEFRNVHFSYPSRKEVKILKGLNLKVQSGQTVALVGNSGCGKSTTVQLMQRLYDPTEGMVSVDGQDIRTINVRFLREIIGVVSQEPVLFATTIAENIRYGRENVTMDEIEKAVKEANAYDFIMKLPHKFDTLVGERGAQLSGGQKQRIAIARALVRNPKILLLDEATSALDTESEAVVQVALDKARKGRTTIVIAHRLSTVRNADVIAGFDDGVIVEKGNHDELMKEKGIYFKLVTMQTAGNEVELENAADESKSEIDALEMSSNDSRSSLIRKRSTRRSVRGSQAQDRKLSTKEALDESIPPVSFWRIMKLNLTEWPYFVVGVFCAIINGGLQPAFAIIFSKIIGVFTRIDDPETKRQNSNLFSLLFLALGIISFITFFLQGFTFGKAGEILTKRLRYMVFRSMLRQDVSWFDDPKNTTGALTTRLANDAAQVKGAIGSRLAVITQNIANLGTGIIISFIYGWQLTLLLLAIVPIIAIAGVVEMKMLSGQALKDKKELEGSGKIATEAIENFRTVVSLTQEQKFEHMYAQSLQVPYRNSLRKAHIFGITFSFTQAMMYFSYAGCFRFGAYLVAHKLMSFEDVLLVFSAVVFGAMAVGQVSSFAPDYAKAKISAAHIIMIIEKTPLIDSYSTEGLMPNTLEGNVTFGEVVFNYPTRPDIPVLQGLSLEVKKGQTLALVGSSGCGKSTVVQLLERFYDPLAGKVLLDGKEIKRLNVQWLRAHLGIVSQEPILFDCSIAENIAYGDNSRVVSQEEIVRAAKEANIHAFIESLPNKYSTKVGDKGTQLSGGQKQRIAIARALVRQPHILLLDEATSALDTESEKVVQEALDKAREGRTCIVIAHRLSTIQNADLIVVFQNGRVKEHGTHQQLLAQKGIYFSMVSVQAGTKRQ

IC50 [1]: 40 nM | MDCK MDR1 EER (MDR1): 2.9 | MDCK BCRP EER (BCRP): 1.5 | Microsomal stability (human/rat) Eh [2]: 0.56 | Microsomal stability (human/rat) Eh (Rat microsomal stability): 0.67
Compound: Cc1ccc(C(=O)Nc2cc(C(F)(F)F)cnn2)cc1-n1cc(-c2cccnc2)cn1 [Example 2, 4-Methyl-3-[4-(3-pyridyl)pyrazol-1-yl]-N-[5-(trifluoromethyl)pyridazin-3-yl]benzamide]
